For one compound, Activity, IC50 and Ratio results are on record in ChEMBL document CHEMBL3046358, “Multiple Pro-197 substitutions in the acetolactate synthase of rigid ryegrass (Lolium rigidum) and their impact on chlorsulfuron activity and plant growth” (Crop Prot, 2012).

Assay [1] has as its system Lolium rigidum. The assay is described as follows: Herbicidal activity against Lolium rigidum accession A04 assessed as emergence rate applied at 4 times pre-emergence recommended rate relative to untreated control. The class given is functional.
Assay [2] concerns the target T1, Acetolactate synthase (Lolium rigidum, UniProt A7XBP7). The assay is described as follows: Inhibition of acetolactate synthase Ala-197/Ala-197 mutant in Lolium rigidum accession A20 leaves extracts by acetolactate production assay. To be noted: read-out: I50.
The test system of assay [3] is Lolium rigidum. The assay is described as follows: Herbicidal activity against Lolium rigidum accession A07 assessed as fresh weight reduction applied at 1 times pre-emergence recommended rate applied in pots where terbufos had been incorporated into the soil relative to untreated control. The format is functional. Set-up: scale not given: the % may be the effect or the level left.

Assay [4] has as its system Lolium rigidum. The experiment in a line: Herbicidal activity against Lolium rigidum accession A03 assessed as emergence rate applied at 1 times pre-emergence recommended rate relative to untreated control. The format is functional.
In assay [5] the test system is Lolium rigidum. The experiment in a line: Herbicidal activity against Lolium rigidum accession A11 assessed as emergence rate applied at 1 times pre-emergence recommended rate applied in pots where terbufos had been incorporated into the soil relative to untreated control. The class given is functional.
Assay [6] concerns Lolium rigidum. The experiment in a line: Herbicidal activity against Lolium rigidum accession A12 assessed as fresh weight reduction applied at 1 times pre-emergence recommended rate applied in pots where terbufos had been incorporated into the soil relative to untreated control. The format is functional. Also noted: scale not given: the % may be the effect or the level left.

In assay [7] the test system is Lolium rigidum. The experiment in a line: Herbicidal activity against Lolium rigidum accession A11 assessed as emergence rate applied at 4 times pre-emergence recommended rate relative to untreated control. The class given is functional.
Assay [8] relates to Lolium rigidum. The experiment in a line: Herbicidal activity against Lolium rigidum accession A10 assessed as emergence rate applied at 1 times pre-emergence recommended rate applied in pots where terbufos had been incorporated into the soil relative to untreated control. The class given is functional.
The target of assay [9] is T1, Acetolactate synthase. The experiment in a line: Inhibition of acetolactate synthase Ala-197/Ala-197 mutant in Lolium rigidum accession A06 leaves extracts by acetolactate production assay. To be noted: read-out: I50.
Assay [10] relates to Lolium rigidum. The experiment in a line: Herbicidal activity against Lolium rigidum accession A12 assessed as emergence rate applied at 1 times pre-emergence recommended rate applied in pots where terbufos had been incorporated into the soil relative to untreated control. The class given is functional.
Assay [11] concerns the target T1, Acetolactate synthase. The experiment in a line: Inhibition of acetolactate synthase Ala-197/Ala-197 mutant in Lolium rigidum accession A16 leaves extracts by acetolactate production assay. The following applies: read-out: I50.
The subject of assay [12] is Lolium rigidum. The experiment in a line: Herbicidal activity against Lolium rigidum accession A10 assessed as emergence rate applied at 1 times pre-emergence recommended rate relative to untreated control. The format is functional.
The subject of assay [13] is Lolium rigidum. The experiment in a line: Herbicidal activity against Lolium rigidum accession A14 assessed as emergence rate applied at 1 times pre-emergence recommended rate applied in pots where terbufos had been incorporated into the soil relative to untreated control. The format is functional.
The target in assay [14] is T2, Acetolactate synthase (Lolium rigidum) (UniProt A7XBP7).
T2 sequence (whole entry): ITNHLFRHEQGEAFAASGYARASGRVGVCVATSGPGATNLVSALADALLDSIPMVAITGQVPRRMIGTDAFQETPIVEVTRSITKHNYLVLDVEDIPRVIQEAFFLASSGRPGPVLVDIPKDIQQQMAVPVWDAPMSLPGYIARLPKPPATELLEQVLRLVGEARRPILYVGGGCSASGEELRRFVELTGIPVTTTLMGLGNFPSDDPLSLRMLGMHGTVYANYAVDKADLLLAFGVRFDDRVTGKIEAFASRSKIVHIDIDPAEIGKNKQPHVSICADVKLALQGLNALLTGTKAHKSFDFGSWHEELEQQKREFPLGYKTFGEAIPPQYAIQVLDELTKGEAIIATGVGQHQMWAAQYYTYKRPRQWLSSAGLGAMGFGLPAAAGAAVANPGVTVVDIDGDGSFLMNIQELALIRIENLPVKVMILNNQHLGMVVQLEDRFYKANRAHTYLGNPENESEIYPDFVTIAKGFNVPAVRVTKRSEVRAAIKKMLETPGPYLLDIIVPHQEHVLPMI
The experiment in a line: Resistance index, ratio of I50 for acetolactate synthase Ala-197/Ala-197 mutant in Lolium rigidum accession A05 leaves extracts to I50 for acetolactate synthase in Lolium rigidum accession A01 leaves extracts.

Assay [15] relates to Lolium rigidum. The experiment in a line: Herbicidal activity against Lolium rigidum accession A09 assessed as emergence rate applied at 4 times pre-emergence recommended rate relative to untreated control. The class given is functional.

`COc1nc(C)nc(NC(=O)NS(=O)(=O)c2ccccc2Cl)n1` [CHLORSULFURON]: the Activity in assay [1] was 1%; in assay [3], 1%; in [4] it was 1%; in assay [5] it was 2%; in assay [6], 100%; in assay [7] it was 1%. The Activity in assay [8] is listed as 3%; in assay [10], 0%; in assay [12] it was 68%; in assay [13], 1%; in [15] it was 1%. In addition, the IC50 in assay [2] is 1.09 µM; in assay [9], 14.1 µM; in assay [11], 7.71 µM. In addition, the Ratio in assay [14] came to 163.
